Measurements published in patent publication US7135466B2 (Kirin Beer Kabushiki Kaisha, priority 1999, dated 2006).

Target: T1, PDGF-Ra (Homo sapiens, UniProt P16234)
T1 construct: host or cells: G-292 human osteosarcoma cells
Assay: Inhibitory activity against PDGF-Ra phosphorylation by PDGF-AA stimulation using G292
Type: cell-based
Conditions: > means inhibition at indicated concentration not more than 50%, < and << not less than 50%; read-out: PDGF (E) IC50
Protocol: Measurement of Inhibitory Activity Against PDGF-Ra Phosphorylation by PDGF-AA Stimulation Using G292
G-292 human osteosarcoma cells (Dainippon Pharmaceutical Co. Ltd.) were cultured in a DMEM medium (Dainippon Pharmaceutical Co. Ltd.) containing 10% FBS within an incubator containing 5% carbon dioxide until 80% confluent, and the cells were planted at 3×10^4 cells per well in 96-well flat-bottom plates in the same medium containing 0.1% FBS. After cultivation at 37° C. overnight, a solution of a test compound in dimethyl sulfoxide was added to each well, and a reaction was allowed to proceed at 37° C. for one hr.
After the reaction of the test compound, PDGF-AA (Upstate) was added to 50 ng/ml, and the cells were stimulated at 37° C. for 5 min. Thereafter, the cells were solubilized and shaken at room temperature for 20 min.
This solubilized cell solution was transferred to a 96-well plate coated with aniti-phosphotyrosine antibody PY-20, and a reaction was allowed to proceed at 4° C. overnight. Anti-PDGF-Ra (c-20) (Santa Cruz) was added as a primary antibody, and a reaction was allowed to proceed for one hr. GAR (Anti-rabbit Ig, horseradish peroxidase, Amersham) was then added as a secondary antibody, and a reaction was allowed to proceed for one hr. Color development was carried out using a color development kit for peroxidase (Sumitomo Bakelite Co., Ltd.), and the absorbance was measured at 450 nm.

T1 sequence (P16234 24-1089): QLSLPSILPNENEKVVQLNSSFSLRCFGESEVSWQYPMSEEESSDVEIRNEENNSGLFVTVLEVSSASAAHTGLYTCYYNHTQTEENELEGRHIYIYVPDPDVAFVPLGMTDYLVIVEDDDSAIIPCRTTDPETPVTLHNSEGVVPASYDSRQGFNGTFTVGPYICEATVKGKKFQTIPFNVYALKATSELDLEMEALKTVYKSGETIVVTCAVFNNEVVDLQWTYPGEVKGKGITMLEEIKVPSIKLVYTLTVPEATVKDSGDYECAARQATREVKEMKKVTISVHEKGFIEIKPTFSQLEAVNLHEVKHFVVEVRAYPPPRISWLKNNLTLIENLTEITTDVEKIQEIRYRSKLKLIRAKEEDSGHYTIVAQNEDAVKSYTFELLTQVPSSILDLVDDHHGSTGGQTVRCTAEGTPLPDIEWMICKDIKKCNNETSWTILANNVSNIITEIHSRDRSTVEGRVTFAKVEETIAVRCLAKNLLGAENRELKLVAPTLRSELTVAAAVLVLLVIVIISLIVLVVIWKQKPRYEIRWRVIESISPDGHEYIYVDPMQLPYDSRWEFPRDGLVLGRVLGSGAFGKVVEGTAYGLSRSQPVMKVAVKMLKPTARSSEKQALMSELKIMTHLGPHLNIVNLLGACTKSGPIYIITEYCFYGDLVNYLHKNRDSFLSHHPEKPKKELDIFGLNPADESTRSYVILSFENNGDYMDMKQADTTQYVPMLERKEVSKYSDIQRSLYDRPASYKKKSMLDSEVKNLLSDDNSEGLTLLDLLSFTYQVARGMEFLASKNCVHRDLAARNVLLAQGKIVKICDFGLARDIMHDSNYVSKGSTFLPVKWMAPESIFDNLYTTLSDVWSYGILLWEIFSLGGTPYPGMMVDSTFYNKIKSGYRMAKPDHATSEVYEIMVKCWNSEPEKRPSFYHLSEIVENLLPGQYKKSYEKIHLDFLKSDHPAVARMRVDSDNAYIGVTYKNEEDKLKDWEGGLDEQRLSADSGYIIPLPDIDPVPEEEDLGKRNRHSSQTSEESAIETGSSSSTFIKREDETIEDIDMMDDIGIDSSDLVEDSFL

| IC50 | Compound |
| --- | --- |
| 37 nM | COc1ccc(C(=O)NC(=S)Nc2ccc(Oc3ncnc4cc(OC)c(OC)cc34)cc2)c(OC)c1 [Example 1175, N-(2,4-Dimethoxybenzoyl)-N′-{4-[(6,7-dimethoxy-4-quinazolinyl)oxy]phenyl}thiourea] |
| 37 nM | COc1cc2nccc(Oc3ccc(NC(=S)NC(=O)Cc4ccc(CBr)cc4)cc3)c2cc1OC [Example 1169, N-{2-[4-(Bromomethyl)phenyl]acetyl}-N′-{4-[(6,7-dimethoxy-4-quinolyl)oxy]phenyl}thiourea] |
| 13 nM | COc1cc2ncnc(Oc3ccc(NC(=S)NC(=O)c4c(Cl)cccc4Cl)cc3)c2cc1OC [Example 1162, N-(2,6-Dichlorobenzoyl)-N′-{4-[(6,7-dimethoxy-4-quinazolinyl)oxy]phenyl}thiourea] |
| 78 nM | CCOC(=O)CCC(=O)NC(=S)Nc1ccc(Oc2ncnc3cc(OC)c(OC)cc23)cc1 [Example 1178, Ethyl 4-[({4-[(6,7-dimethoxy-4-quinazolinyl)oxy]anilino}carbothioyl)amino]-4-oxobutanoate] |
| 53 nM | COc1cc2nccc(Oc3ccc(NC(=S)NC(=O)C(C)Oc4ccccc4)cc3)c2cc1OC (stereo not shown) [Example 745, N-{4-[(6,7-Dimethoxy-4-quinolyl)oxy]phenyl}-N′-(2-phenoxypropanoyl)thiourea] |
| > 100 nM | CCCCCCOc1ccc(C(=O)NC(=S)Nc2ccc(Oc3ccnc4cc(OC)c(OC)cc34)cc2)cc1 [Example 755, N-{4-[(6,7-Dimethoxy-4-quinolyl)oxy]phenyl}-N′-[4-(hexyloxy)benzoyl]thiourea] |

The next lines start with the compound.

| Compound | IC50 |
| --- | --- |
| COc1cc2nccc(Oc3ccc(NC(=S)NC(=O)Cc4ccccc4[N+](=O)[O-])cc3Cl)c2cc1OC [Example 736, N-{3-Chloro-4-[(6,7-dimethoxy-4-quinolyl)oxy]phenyl}-N′-[2-(2-nitrophenyl)acetyl]thiourea] | 72 nM |
| COc1cc2nccc(Oc3ccc(NC(=S)NC(=O)Cc4ccccc4[N+](=O)[O-])cc3)c2cc1OC [Example 735, N-{4-[(6,7-Dimethoxy-4-quinolyl)oxy]phenyl}-N′-[2-(2-nitrophenyl)acetyl]thiourea] | 15 nM |
| CCN(C(=O)OCc1ccccc1Cl)c1ccc(Oc2ncnc3cc(OC)c(OC)cc23)cc1Cl [Example 487, 2-Chlorobenzyl N-{2-chloro-4-[(6,7-dimethoxy-4-quinazolinyl)oxy]phenyl}-N-ethylcarbamate] | > 100 nM |
| COc1cc2ncnc(Oc3ccc(NC(=O)OC4CCCN(C)C4)cc3)c2cc1OC (stereo not shown) [Example 465, 1-Methyl-3-piperidyl N-{4-[(6,7-dimethoxy-4-quinazolinyl)oxy]phenyl}carbamate] | 56 nM |
| COc1cc2nccc(Oc3ccc(NC(=O)NN4CCCCC4)c(C)c3C)c2cc1OC [Example 593, N-{4-[(6,7-Dimethoxy-4-quinolyl)oxy]-2,3-dimethylphenyl}-N′-(1-piperidinyl)urea] | 51 nM |
| COc1ccc(CCC(=O)NC(=S)Nc2ccc(Oc3ccnc4cc(OC)c(OC)cc34)c(Cl)c2)cc1OC [Example 712, N-{3-Chloro-4-[(6,7-dimethoxy-4-quinolyl)oxy]phenyl}-N′-[3-(3,4-dimethoxyphenyl)propanoyl]thiourea] | 83 nM |
| COc1cc2nccc(Oc3ccc(NC(=O)NC4CCN(CC5CCCCC5)C4)cc3)c2cc1OC (stereo not shown) [Example 585, N-[1-(Cyclohexylmethyl)tetrahydro-1H-3-pyrrolyl]-N′-{4-[(6,7-dimethoxy-4-quinolyl)oxy]phenyl}urea] | > 100 nM |

Same assay, conditions: G292; figure within parentheses in >100( ); at 100 nM; read-out: PDGF (E) inhibition (%) at 100 nM

| Compound | inhibition at 0.1 µM |
| --- | --- |
| CCN(C(=O)OCc1ccccc1Cl)c1ccc(Oc2ncnc3cc(OC)c(OC)cc23)cc1Cl [Example 487, 2-Chlorobenzyl N-{2-chloro-4-[(6,7-dimethoxy-4-quinazolinyl)oxy]phenyl}-N-ethylcarbamate] | 31% |
| CCCCCCOc1ccc(C(=O)NC(=S)Nc2ccc(Oc3ccnc4cc(OC)c(OC)cc34)cc2)cc1 [Example 755, N-{4-[(6,7-Dimethoxy-4-quinolyl)oxy]phenyl}-N′-[4-(hexyloxy)benzoyl]thiourea] | 3% |
| COc1cc2nccc(Oc3ccc(NC(=O)NC4CCN(CC5CCCCC5)C4)cc3)c2cc1OC (stereo not shown) [Example 585, N-[1-(Cyclohexylmethyl)tetrahydro-1H-3-pyrrolyl]-N′-{4-[(6,7-dimethoxy-4-quinolyl)oxy]phenyl}urea] | 32% |

Same assay, conditions: Pharmacological Test Example 1; > means inhibition at indicated concentration not more than 50%, < and << not less than 50%; read-out: PDGF (E) IC50

| Compound | IC50 |
| --- | --- |
| COc1cc2nccc(Oc3ccc(NC(=O)OC(c4ccccc4)C(C)C)cc3)c2cc1OC (stereo not shown) [Example 195, 2-Methyl-1-phenylpropyl N-{4-[(6,7-dimethoxy-4-quinolyl)oxy]phenyl}carbamate] | 66 nM |
| CCCC(OC(=O)Nc1ccc(Oc2ccnc3cc(OC)c(OC)cc23)c(C)c1C)c1ccccc1 (stereo not shown) [Example 185, 1-Phenylbutyl N-{4-[(6,7-dimethoxy-4-quinolyl)oxy]-2,3-dimethylphenyl}carbamate] | 46 nM |
| 4-(Dimethylamino)butyl N-{4-[(6,7-dimethoxy-4-quinolyl)oxy]phenyl}carbamate [Example 192] | 56 nM |
| COc1cc2nccc(Oc3ccc(NC(=O)OCCCCN(C)C)c(C)c3C)c2cc1OC [Example 193, 4-(Dimethylamino)butyl N-{4-[(6,7-dimethoxy-4-quinolyl)oxy]-2,3-dimethylphenyl}carbamate] | 57 nM |
| COc1cc2nccc(Oc3cc(C)c(NC(=O)OC(c4ccccc4)C(C)C)cc3C)c2cc1OC (stereo not shown) [Example 197, 2-Methyl-1-phenylpropyl N-{4-[(6,7-dimethoxy-4-quinolyl)oxy]-2,5-dimethylphenyl}carbamate] | 93 nM |
| COc1cc2ncnc(Oc3ccc(NC(=O)OC(C)c4ccccc4Br)c(Cl)c3)c2cc1OC (stereo not shown) [Example 116, 1-(2-Bromophenyl)ethyl N-{2-chloro-4-[(6,7-dimethoxy-4-quinazolinyl)oxy]phenyl}carbamate] | 31 nM |
| COc1cc2nccc(Oc3cc(C)c(NC(=O)OCCOc4cccc(F)c4)cc3C)c2cc1OC [Example 209, 2-(3-Fluorophenoxy)ethyl N-{4-[(6,7-dimethoxy-4-quinolyl)oxy]-2,5-dimethylphenyl}carbamate] | > 100 nM |

Target: T2, c-kit (Homo sapiens, UniProt P10721)
T2 construct: MO7e (human megakaryocytic leukemia cell line) which had been arrested for 20 hr; endogenous in cells; host or cells: MO7e human megakaryocytic leukemia cell line
Assay: Inhibitory activity against c-kit autophosphorylation (MO7e cells, h-SCF)
Type: cell-based
Conditions: MO7e cells, 50 ng/ml h-SCF; read-out: c-kit IC50
Summary of the method: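 In this cellular autophosphorylation assay, compound-treated MO7e cells (1 hr) were challenged with human stem cell factor at 50 ng/ml for 5 min; detection relied on PY-20 capture and anti-c-kit/HRP immunodetection at 450 nm.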

T2 sequence (P10721 26-976): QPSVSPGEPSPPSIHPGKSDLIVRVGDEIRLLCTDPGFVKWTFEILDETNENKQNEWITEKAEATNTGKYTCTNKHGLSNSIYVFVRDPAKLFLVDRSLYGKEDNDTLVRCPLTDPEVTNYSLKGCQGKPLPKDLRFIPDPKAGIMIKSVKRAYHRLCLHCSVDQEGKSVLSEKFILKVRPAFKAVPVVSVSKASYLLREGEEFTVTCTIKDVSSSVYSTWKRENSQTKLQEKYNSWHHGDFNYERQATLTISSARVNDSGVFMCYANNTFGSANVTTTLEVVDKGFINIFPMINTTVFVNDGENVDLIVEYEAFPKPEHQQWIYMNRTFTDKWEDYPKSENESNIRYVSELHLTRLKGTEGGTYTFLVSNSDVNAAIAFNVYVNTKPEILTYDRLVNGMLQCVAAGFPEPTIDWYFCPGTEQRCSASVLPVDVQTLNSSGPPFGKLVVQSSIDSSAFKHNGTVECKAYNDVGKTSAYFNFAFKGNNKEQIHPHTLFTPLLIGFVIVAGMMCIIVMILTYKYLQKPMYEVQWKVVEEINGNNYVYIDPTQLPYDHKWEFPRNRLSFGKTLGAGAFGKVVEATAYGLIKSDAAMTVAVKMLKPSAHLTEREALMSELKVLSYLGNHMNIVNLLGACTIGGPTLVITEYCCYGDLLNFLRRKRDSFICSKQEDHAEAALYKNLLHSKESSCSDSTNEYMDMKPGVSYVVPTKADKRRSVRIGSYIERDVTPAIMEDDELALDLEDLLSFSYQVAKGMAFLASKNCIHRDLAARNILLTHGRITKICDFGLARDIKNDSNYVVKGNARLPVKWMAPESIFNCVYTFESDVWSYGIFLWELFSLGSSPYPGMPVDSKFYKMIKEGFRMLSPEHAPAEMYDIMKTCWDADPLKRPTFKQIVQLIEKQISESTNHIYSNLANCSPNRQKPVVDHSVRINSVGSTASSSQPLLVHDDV

| Compound | IC50 |
| --- | --- |
| COc1cc2nccc(Oc3ccc(OCC(=O)Nc4cccc(Cl)c4)cc3)c2cc1OC [Example 788, N1-(3-Chlorophenyl)-2-{4-[(6,7-dimethoxy-4-quinolyl)oxy]phenoxy}acetamide] | 122 nM |

Same assay, conditions: MO7e cells, h-SCF stimulation; read-out: c-kit IC50

| Compound | IC50 |
| --- | --- |
| COc1cc2ncnc(Oc3ccc(NC(=S)NC(=O)c4ccc(F)cc4)cc3)c2cc1OC [Example 986, N-{4-[(6,7-Dimethoxy-4-quinazolinyl)oxy]phenyl}-N′-(4-fluorobenzoyl)thiourea] | 264 nM |
| COc1cc2nccc(Oc3ccc(SCCOc4cccc(F)c4)cc3)c2cc1OC [Example 821, 4-(4-{[2-(3-Fluorophenoxy)ethyl]sulfanyl}phenoxy)-6,7-dimethoxyquinoline] | 184 nM |
| COc1cc2nccc(Oc3ccc(NC(=S)NC(=O)c4ccccc4C)cc3F)c2cc1OC [Example 912, N-{4-[(6,7-Dimethoxy-4-quinolyl)oxy]-3-fluorophenyl}-N′-(2-methylbenzoyl)thiourea] | 497 nM |
| COc1cc2nccc(Oc3ccc(SCCCCOc4cccc(C)c4)cc3)c2cc1OC [Example 844, 6,7-Dimethoxy-4-(4-{[4-(3-methylphenoxy)butyl]sulfanyl}phenoxy)quinoline] | 450 nM |
| COc1cc2ncnc(Oc3ccc(SCCCOc4ccccc4F)cc3)c2cc1OC [Example 845, 4-(4-{[3-(2-Fluorophenoxy)propyl]sulfanyl}phenoxy)-6,7-dimethoxyquinazoline] | 453 nM |
| COc1cc2nccc(Oc3ccc(NC(=S)NC(=O)c4ccccc4)c(C)c3)c2cc1OC [Example 1099, N-Benzoyl-N′-{4-[(6,7-dimethoxy-4-quinolyl)oxy]-2-methylphenyl}thiourea] | 552 nM |
| COc1cc2nccc(Oc3ccc(NC(=S)NC(=O)c4ccccc4Br)cc3F)c2cc1OC [Example 914, N-(2-Bromobenzoyl)-N′-{4-[(6,7-dimethoxy-4-quinolyl)oxy]-3-fluorophenyl}thiourea] | 299 nM |
| COc1cc2nccc(Oc3ccc(NCCOc4ccc(F)cc4)cc3)c2cc1OC [Example 866, N-{4-[(6,7-Dimethoxy-4-quinolyl)oxy]phenyl}-N-[2-(4-fluorophenoxy)ethyl]amine] | 126 nM |
| COc1cc2nccc(Oc3ccc(NC(=S)NC(=O)c4ccco4)cc3)c2cc1OC [Example 1033, N-{4-[(6,7-Dimethoxy-4-quinolyl)oxy]phenyl}-N′-(2-furylcarbonyl)thiourea] | 177 nM |
| COc1cc2nccc(Oc3ccc(NC(=S)NC(=O)c4ccccc4)cc3C)c2cc1OC [Example 1109, N-Benzoyl-N′-{4-[(6,7-dimethoxy-4-quinolyl)oxy]-3-methylphenyl}thiourea] | 353 nM |

Same assay, conditions: Mo7e, figure in parentheses in −( ); at 1000 nM

| Compound | inhibition at 1 µM |
| --- | --- |
| COc1cc2nccc(Oc3ccc(NC(=S)NC(=O)c4ccc(Cl)cc4Cl)cc3F)c2cc1OC [Example 1014, N-(2,4-Dichlorobenzoyl)-N′-{4-[(6,7-dimethoxy-4-quinolyl)oxy]-3-fluorophenyl}thiourea] | 30% |
| COc1cc2nccc(Oc3ccc(NC(=S)NC(=O)c4ccc(F)cc4F)c(C)c3C)c2cc1OC [Example 1088, N-(2,4-Difluorobenzoyl)-N′-{4-[(6,7-dimethoxy-4-quinolyl)oxy]-2,3-dimethylphenyl}thiourea] | 23% |

Same assay, conditions: Mo7e, figure within parentheses in −( ) or >1000( ); at 1000 nM

| Compound | inhibition at 1 µM |
| --- | --- |
| COc1cc2ncnc(Oc3ccc(NC(=S)NCCCN4CCN(C)CC4)cc3)c2cc1OC [Example 536] | 7% |
